# Data taken from US12678511B2, “Peptide and use thereof” (Kansai Medical University Educational Corgoration, priority 2019, dated 2026).
# Entries after “also recorded” stand apart in the source; their conditions may differ. Peptide text beside a SMILES is read from it.
# Assays:
# [1] = Degradation resistance in human plasma (MALDI-TOFMS); format: in vitro ADME; settings: human plasma 50% by mass, 0 to 120 minutes, FIG. 4
# Description: For the single peptide, tandem peptide, and tandem mutated peptide of MSCPP106 shown below in Table 2, the degradation resistance in human plasma was investigated. In Table 2, “tandem MSCPP106” describes a peptide composed of sequence containing two repeated amino acid sequences for MSCPP106 linked via a glycine residue spacer. Further, “tandem mut MSCPP106” describes a peptide composed of a sequence in which the cysteine residues in the amino acid sequence of tandem MSCPP106 have been methylated (mC).
# Each of the above peptides was added to human plasma with a concentration of 50% by mass, the mixture was then sampled immediately after starting the degradation test (0 minutes), and then after 5 minutes, after 10 minutes, after 20 minutes, after 30 minutes, after 60 minutes and after 120 minutes, and each sample was analyzed by MALDI-TOFMS (Matrix Assisted Laser Desorption/Ionization-Time of Flight Mass Spectrometry). The ratio of the mass of the retained peptide that had not degraded at each of the sampling points from the start of the test, relative to the mass of the peptide (100% by mass) at the start of the test was calculated and graphed (see FIG. 4).
# hMSC [2] = assay: Intracellular localization of [FAM]-tandem MSCPP106 in hMSC; format: cell-based, human; settings: [FAM]-labelled, 4 μM, fluorescence maintained in lysosomes, FIG. 6
# Experimental: Next, the intracellular localization of [FAM]-tandem MSCPP106 was investigated. Specifically, hMSC were inoculated into a 24-well plate to achieve 4×10^4 cells/well, and four hours after the inoculation, the medium was replaced with an RPMI medium containing 10% FBS, and culturing was conducted for 60 hours. Following culturing, a medium (RPMI 1640 medium containing 10% FBS) containing 4 μM of [FAM]-tandem MSCPP106 was added to the hMSC and cultured for 24 hours. Following culturing, nuclear staining was conducted with Hoechst 33342 (excitation wavelength: 352 nm, fluorescence wavelength: 461 nm), lysosomes were also stained using LysoTracker (a registered trademark) RED DND-99 (a lysosome content marker, excitation wavelength: 555 nm, fluorescence wavelength: 584 nm), and the cultures were then observed using a phase difference/fluorescence microscope (magnification: 60×). In FIG. 6, “Merge” indicates a merged image of the FAM fluorescence image and the LysoTracker (a registered trademark) RED DND-99 fluorescence image.
# [3] = system: CAF of the cancer stroma, subcutaneous tumor; assay: Absorption into CAF of cancer stroma in scirrhous cancer model mouse; format: in vivo; settings: [FAM]-labelled, 300 μg intravenous, 30 minutes after injection, FIG. 8C
# Experimental: Using the same method as Example 7, a scirrhous cancer model mouse was obtained. Subsequently, the obtained scirrhous cancer model mouse was injected intravenously with [FAM]-tandem MSCPP106 (300 μg). Subsequently, the pharmacokinetics of the peptide 30 minutes after the intravenous injection were analyzed by tissue analysis of the freshly dissected specimen of the peptide-administered mouse.
# FIG. 8C is a series of phase difference microscope images and fluorescent images of the subcutaneous tumor. The upper two rows are images at a magnification of 20×, whereas the lower two rows are images at a magnification of 40×. Further, “Merge” represents merged images of each phase difference microscope image and each fluorescent image.
# [4] = system: cancer stroma, subcutaneous tumor (BxPC3 cells and DsRed2 hMSC); assay: Absorption of [FAM]-tandem and [FAM]-tandem mut MSCPP106 into cancer stroma in scirrhous pancreatic cancer model mice; format: in vivo, mouse; settings: [FAM]-labelled, 300 μg intravenous, 60 minutes after injection
# Description: Next, in order to investigate the functional importance of the cysteine within the peptide sequence (positioned second from the N-terminus), a comparison was made of the absorption into cancer stroma of [FAM]-tandem MSCPP106 and [FAM]-tandem mut MSCPP106 (having a sequence in which the N-terminus is labeled with FAM, and having a mutation in which the side-chain —SH group of the cysteine second from the N-terminus has been methylated). With the exception of using cloned hMSC cells that constantly expressed DsRed2, the same method as Example 7 was used to obtain scirrhous pancreatic cancer model mice. Subsequently, the obtained scirrhous pancreatic cancer model mice were injected intravenously with [FAM]-tandem MSCPP106 or [FAM]-tandem mut MSCPP106 (300 μg in each case). In each case, the pharmacokinetics of the peptide 60 minutes after the intravenous injection were then analyzed by tissue analysis of the freshly dissected specimen of the peptide-administered mouse.
# FIG. 9B is a series of fluorescent images of subcutaneous tumors in mice administered with [FAM]-tandem MSCPP106 or [FAM]-tandem mut MSCPP106 (magnification: 4×).
# FIG. 9C is a series of fluorescent images of a subcutaneous transplanted tumor in a mouse administered with tandem MSCPP106 (magnification: 4×, 20× and 40×). […]
# [5] = system: human mesenchymal stem cells (hMSC), line UE6E7T-3; assay: Penetration of MSCPP-EGFPHIS fusion peptides into hMSC (fluorescence microscopy); format: cell-based; settings: MSCPP-EGFPHIS fusion peptide, cultured four hours, FIG. 1
# Description: Using an independently prepared 9-amino acid residue peptide as a phenotype linked via puromycin to a protein-RNA chimeric random peptide library (in vitro virus library; IVVL) having an mRNA coding sequence as the corresponding genotype, a conventional IVV (in vitro virus) method was used with human mesenchymal stem cells (hMSC) as the absorption target cells to repeat a reaction cycle in a culture system, thus isolating 81 types of peptide having penetration into mesenchymal stem cells (mesenchymal stem cell-penetrating peptide; MSCPP).
# Next, fusion peptides (having a His tag formed from six histidine residues at the C-terminus of the fusion peptide) of each of the 81 isolated MSCPP and EGFP (excitation wavelength: 488 nm, fluorescence wavelength: 509 nm) (MSCPP-EGFPHIS) were produced. The penetration properties into hMSC were evaluated for each of the MSCPP-EGFPHIS. Cells of the hMSC line UE6E7T-3 were used as the hMSC. An RPMI 1640 medium containing 10% FBS was used as the medium. The UE6E7T-3 cells were inoculated into a 96-well plate, medium containing each MSCPP-EGFPHIS (5 μL of fusion peptide solution and 50 μL of medium per well) was added, and the mixtures were cultured for four hours. Following culturing, the cells were inspected under a fluorescence microscope. In FIG. 1, “EGFPHIS” represents EGFP having a His tag formed from six histidine residues at the C-terminus, but not being fused with an MSCPP peptide. Further, “Poly-r9” (9-residue continuous D-arginine) is a non-selective membrane-permeable peptide that is currently widely used.
# hMSC [6] = assay: Cell selectivity of FITC-labelled peptides: penetration into hMSC; format: cell-based, human; settings: FITC-labelled peptide 4 μM, four hours, FIG. 2
# Experimental: (§1) Among the peptides identified in Example 1, the four peptides MSCPP33, 48, 49 and 106, Poly-r9 as a positive control and MSCPP22 as a negative control were synthesized with an FITC (fluorescein isothiocyanate) (excitation wavelength: 495 nm, fluorescence wavelength: 520 nm) label, and then subjected to a hydrochloride treatment. These peptides were each obtained via contract synthesis by Sigma-Aldrich Japan (Genosis division). The MSCPP33 was dissolved in 20% DMSO. The MSCPP48 developed a precipitate following thawing of the frozen state, and was therefore subjected to a sonication treatment prior to use. The MSCPP49 and MSCPP106 were dissolved in water prior to use.
# Subsequently, the penetration of each peptide into hMSC, normal human dermal fibroblasts (NHDF), and BxPC3 cells, which are an established cell line derived from human pancreatic adenocarcinoma, was confirmed. In the case of the hMSC, cells that had been inoculated into a 24-well plate at 4×10^4 cells/well and then cultured for 24 hours in an MSC medium were used. In the case of the NHDF and BxPC3 cells, cells that had been inoculated into a 24-well plate at 4×10^4 cells/well and then cultured for 24 hours in an RPMI 1640 medium containing 10% FBS were used. Mediums (RPMI 1640 medium containing 10% FBS) containing 4 μM of each of the peptides were then added to each of the cells and cultured for four hours. Following culturing, each of the cells was subjected to nuclear staining with Hoechst 33342 (excitation wavelength: 352 nm, fluorescence wavelength: 461 nm), and was then observed using a phase difference/fluorescence microscope. In FIG. 2, the images shown on the left side are FITC fluorescence images, and the images shown on the right side are merged images of the fluorescence image and the phase difference microscope image.
# [7] = system: normal human dermal fibroblasts (NHDF); assay: Cell selectivity of FITC-labelled peptides: penetration into NHDF; format: cell-based; settings: FITC-labelled peptide 4 μM, four hours, FIG. 2
# Experimental: as §1
# (§2) Subsequently, the penetration of each peptide into hMSC, normal human dermal fibroblasts (NHDF), and BxPC3 cells, which are an established cell line derived from human pancreatic adenocarcinoma, was confirmed. […] Following culturing, each of the cells was subjected to nuclear staining with Hoechst 33342 (excitation wavelength: 352 nm, fluorescence wavelength: 461 nm), and was then observed using a phase difference/fluorescence microscope. In FIG. 2, the images shown on the left side are FITC fluorescence images, and the images shown on the right side are merged images of the fluorescence image and the phase difference microscope image.
# BxPC3 cells = assay: Cell selectivity of FITC-labelled peptides: penetration into BxPC3 cells; format: cell-based, human; settings: FITC-labelled peptide 4 μM, four hours, FIG. 2
# Experimental: as §1, §2
Compound,degradation resistance in human plasma [1],penetration into human bone marrow-derived mesenchymal stem cells (hMSC) [5],absorption into hMSC (hMSC [6]),other results
"CC(C)C[C@H](NC(=O)[C@H](Cc1c[nH]cn1)NC(=O)[C@H](CCCNC(=N)N)NC(=O)[C@H](Cc1ccccc1)NC(=O)[C@H](CC(C)C)NC(=O)[C@H](CCC(=O)O)NC(=O)[C@H](C)NC(=O)[C@H](CS)NC(=O)[C@H](CCCCN)NC(=O)CNC(=O)[C@H](CC(C)C)NC(=O)[C@H](Cc1c[nH]cn1)NC(=O)[C@H](CCCNC(=N)N)NC(=O)[C@H](Cc1ccccc1)NC(=O)[C@H](CC(C)C)NC(=O)[C@H](CCC(=O)O)NC(=O)[C@H](C)NC(=O)[C@H](CS)NC(=O)[C@@H](N)CCCCN)C(=O)O [tandem MSCPP106, KCAELFRHL-G-KCAELFRHL] (H-KCAELFRHLGKCAELFRHL-OH; N-terminus and C-terminus assumed)",excellent degradation resistance compared with the single MSCPP106,–,–,"resistance to intracellular digestion (degradation) (hMSC [2]): at least 24 hours; absorption into the CAF of the cancer stroma [3]: selective absorption; absorption into cancer stroma, comparison of peptides ([4]; FIG. 9B): even better absorption into cancer stroma than tandem mut MSCPP106; absorption into hMSC-derived hCAF and mouse MSC-derived CAF ([4]; FIG. 9C): excellent absorption into both forms of CAF"
"CSC[C@H](NC(=O)[C@H](CCCCN)NC(=O)CNC(=O)[C@H](CC(C)C)NC(=O)[C@H](Cc1c[nH]cn1)NC(=O)[C@H](CCCNC(=N)N)NC(=O)[C@H](Cc1ccccc1)NC(=O)[C@H](CC(C)C)NC(=O)[C@H](CCC(=O)O)NC(=O)[C@H](C)NC(=O)[C@H](CSC)NC(=O)[C@@H](N)CCCCN)C(=O)N[C@@H](C)C(=O)N[C@@H](CCC(=O)O)C(=O)N[C@@H](CC(C)C)C(=O)N[C@@H](Cc1ccccc1)C(=O)N[C@@H](CCCNC(=N)N)C(=O)N[C@@H](Cc1c[nH]cn1)C(=O)N[C@@H](CC(C)C)C(=O)O [tandem mut MSCPP106, KmCAELFRHL-G-KmCAELFRHL] (H-KC(Me)AELFRHLGKC(Me)AELFRHL-OH; N-terminus and C-terminus assumed)",excellent degradation resistance compared with the single MSCPP106,–,–,–
KCAELFRHL [MSCPP106],–,exhibited penetration,high absorption and fixed selective absorption; also recorded: efficient absorption,fluorescence observed in hMSC [5]: Particularly strong fluorescence; absorption into NHDF [7]: lower absorption into NHDF compared with the absorption into hMSC; absorption into the pancreatic cancer cells BxPC3 (BxPC3 cells): low absorption
RRWMQWPWH [MSCPP49],–,exhibited penetration,high absorption and fixed selective absorption,–
RTHPVWSRT [MSCPP48],–,exhibited penetration,high absorption and fixed selective absorption,–
WPPLQRWRN [MSCPP33],–,exhibited penetration,high absorption and fixed selective absorption,–
